Results on one molecule are retold here after patent US20030032639A1, “Composition and method for reducing adverse interactions between phenothiazine derivatives and plasma using surfactants and amino acids” (Wyeth, priority 2001, published 2003).

For series [1] the following is noted: after intramuscular injection; cited from earlier work.
Series [2] in a line: promethazine hydrochloride preparation mixed with plasma in vitro, relative amount of precipitate formed. The class given is physicochemical. Particulars: laboratory studies, ratio not stated. From the text: Without being bound by any particular theory, it is believed that this precipitate formation could be related to the venous thrombosis found at the injection site, as well as the cause of other local adverse reactions involving promethazine injection. […] With a composition according to one or more of the embodiments set forth herein, it is expected that a promethazine solution given by the routes of i.v. and i.m. (intramuscular) injection would have fewer incidences of irritation and other adverse reactions at the site of injection.

For series [3] the following is noted: cited from earlier work.

For the molecule `CC(CN1c2ccccc2Sc2ccccc21)N(C)C.Cl` (racemic) [promethazine hydrochloride, 10H-Phenothiazine-10-ethanamine, N,N, α-trimethyl-, monohydrochloride, (±)], the “plasma creatine kinase levels (indication of muscle irritation)” value in series [1] is reported as “raise plasma creatine kinase levels”. Besides, the “precipitate formation when solution is mixed with plasma” value in series [2] was “precipitates form immediately”. The “adverse reactions at the local area of injection” value in series [3] (clinical case reports) is “irritation and other serious adverse reactions at the local area of injection, particularly gangrene at the extremity of the injection site”. In series [3] (in vivo, iv), the “venous thrombosis at the injection site” value is reported as “some incidents of venous thrombosis at the injection site”.
